Measured values as given in ChEMBL document CHEMBL3576781, “Substituted Bis-THF Protease Inhibitors with Improved Potency against Highly Resistant Mature HIV-1 Protease PR20” (J Med Chem, 2015).
Active and inactive are the calls of the source. The rule behind the calls is not given here.

Experiments:
[1] = molecular target: Protease (Human immunodeficiency virus 1, UniProt Q9YQ12); assay: Inhibition of wild type HIV1 protease
[2] = test system: Human immunodeficiency virus 1; assay: Antiviral activity against HIV1 by cell based MTT assay; format: functional, organism-based
[3] = test system: Human immunodeficiency virus 1; assay: Inhibition of N-terminal autoprocessing of transframe region-comprising HIV1 protease PR20 mutant precursor up to 100 uM by SDS-PAGE method
[4] = Inhibition of HIV1 protease PR20 mutant expressed in Escherichia coli BL21 (DE3) incubated for 5 mins followed by Abz-Thr-Ile-Nle-p-nitro-Phe-GlnArg-NH2 substrate addition and measured over 5 mins by microplate reader based assay; parameters: species or system Human immunodeficiency virus 1
[5] = test system: Human immunodeficiency virus 1; assay: Antiviral activity against HIV1 LAI infected in human MT2 cells by MTT assay; format: functional, organism-based; details: Human immunodeficiency virus 1, LAI
[6] = Binding affinity to HIV1 protease PR20 mutant expressed in Escherichia coli BL21 (DE3) assessed as ligand dissociation constant by ITC method; parameters: species or system Human immunodeficiency virus 1

Sequence of Protease (Q9YQ12 whole entry): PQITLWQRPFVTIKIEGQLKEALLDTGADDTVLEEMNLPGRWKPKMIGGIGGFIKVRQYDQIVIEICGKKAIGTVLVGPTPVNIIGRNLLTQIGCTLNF

COc1ccc(S(=O)(=O)N(CC(C)C)C[C@@H](O)[C@H](Cc2ccccc2)NC(=O)O[C@H]2CO[C@H]3OC[C@H](OC)[C@H]32)cc1
Ki [1]: 0.0029 nM
IC50 [2]: 2.4 nM
inhibition [3]: inactive
Ki [4]: 4.3 nM

CC(C)CN(C[C@@H](O)[C@H](Cc1ccccc1)NC(=O)O[C@H]1CO[C@H]2OCC(F)(F)[C@H]21)S(=O)(=O)c1ccc(N)cc1
Ki [1]: 0.0058 nM
inhibition [3]: inactive
EC50 [5]: 3 nM
Ki [4]: 1.7 nM

CC(C)CN(C[C@@H](O)[C@H](Cc1ccccc1)NC(=O)O[C@H]1CO[C@H]2OCC[C@H]21)S(=O)(=O)c1ccc(N)cc1
Kd [6]: 41 nM
